Activity calls are given as the source filed them. The rule behind the calls is not given here.
What was measured:
Egl nine homolog 1 [1] = target: T1, Egl nine homolog 1 (Homo sapiens, UniProt Q9GZT9); assay: Inhibition of GST-tagged PHD2 assessed as inhibition of hydroxylation of biotinylated HIF1alpha CODD peptide at 100 uM after 20 mins by MALDI-TOF technique in presence of 2-oxoglutarate
Target sequence in this assay (Q9GZT9 2-426 limits assumed): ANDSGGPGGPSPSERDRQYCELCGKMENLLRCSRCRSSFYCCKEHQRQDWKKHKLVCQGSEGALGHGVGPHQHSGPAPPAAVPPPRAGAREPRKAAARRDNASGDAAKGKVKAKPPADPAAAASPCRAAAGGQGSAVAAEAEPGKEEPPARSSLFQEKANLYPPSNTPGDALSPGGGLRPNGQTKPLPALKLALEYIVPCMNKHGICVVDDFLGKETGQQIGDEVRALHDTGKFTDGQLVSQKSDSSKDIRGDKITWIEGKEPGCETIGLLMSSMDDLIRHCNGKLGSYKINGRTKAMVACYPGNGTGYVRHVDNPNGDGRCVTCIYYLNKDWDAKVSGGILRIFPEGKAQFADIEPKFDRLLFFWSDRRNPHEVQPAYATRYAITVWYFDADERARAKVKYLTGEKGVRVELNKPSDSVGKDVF

[2] = target: Hypoxia-inducible factor 1-alpha inhibitor (Homo sapiens) (UniProt Q9NWT6); assay: Inhibition of FIH assessed as inhibition of hydroxylation of C-TAD peptide at 100 uM after 2 hrs by fluorescent polarization assay in presence of 2-oxoglutarate
Egl nine homolog 1 [3] = target: T1, Egl nine homolog 1; assay: Inhibition of PHD2 in human HeLa cells assessed as stabilization of HIF1alpha at 100 uM incubated for 6 hrs under normoxic conditions by Western blot analysis relative to control; assay type: cell-based
Target sequence in this assay (Q9GZT9 2-426 limits assumed): as above

Egl nine homolog 1 [4] = target: T1, Egl nine homolog 1; assay: Competitive inhibition of GST-tagged PHD2 active site assessed as inhibition of hydroxylation of fluorescein-labeled HIF1alpha CODD peptide at 200 uM after 2 hrs by fluorescent polarization assay in presence of 2-oxoglutarate
Target sequence in this assay (Q9GZT9 2-426 limits assumed): as above

Egl nine homolog 1 [5] = target: T1, Egl nine homolog 1; assay: Inhibition of GST-tagged PHD2 assessed as inhibition of hydroxylation of fluorescein-labeled HIF1alpha CODD peptide at 100 uM after 2 hrs by fluorescent polarization assay in presence of 2-oxoglutarate
Target sequence in this assay (Q9GZT9 2-426 limits assumed): as above

Egl nine homolog 1 [6] = target: T1, Egl nine homolog 1; assay: Inhibition of PHD2 in human HeLa cells assessed as stabilization of HIF1alpha at 1 mM incubated for 6 hrs under normoxic conditions by Western blot analysis relative to control; assay type: cell-based
Target sequence in this assay (Q9GZT9 2-426 limits assumed): as above

Egl nine homolog 1 [7] = target: T1, Egl nine homolog 1; assay: Competitive inhibition of GST-tagged PHD2 active site assessed as inhibition of hydroxylation of fluorescein-labeled HIF1alpha CODD peptide at 100 uM after 2 hrs by fluorescent polarization assay in presence of 2-oxoglutarate
Target sequence in this assay (Q9GZT9 2-426 limits assumed): as above

Egl nine homolog 1 [8] = target: T1, Egl nine homolog 1; assay: Inhibition of GST-tagged PHD2 assessed as inhibition of hydroxylation of fluorescein-labeled HIF1alpha CODD peptide after 1 hr by fluorescent polarization assay in presence of 2-oxoglutarate
Target sequence in this assay (Q9GZT9 whole entry): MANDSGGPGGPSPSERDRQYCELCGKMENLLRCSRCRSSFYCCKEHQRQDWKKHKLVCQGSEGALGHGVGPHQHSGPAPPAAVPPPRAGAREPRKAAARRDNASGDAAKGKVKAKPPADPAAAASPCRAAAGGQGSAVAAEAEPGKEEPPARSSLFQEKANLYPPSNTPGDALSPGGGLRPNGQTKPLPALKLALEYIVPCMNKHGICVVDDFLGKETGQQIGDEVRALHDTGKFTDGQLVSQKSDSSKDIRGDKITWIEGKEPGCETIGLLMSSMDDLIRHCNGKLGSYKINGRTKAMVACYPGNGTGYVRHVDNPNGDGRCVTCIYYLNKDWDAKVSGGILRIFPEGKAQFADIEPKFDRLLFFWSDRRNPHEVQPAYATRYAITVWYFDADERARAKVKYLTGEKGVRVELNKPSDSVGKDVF

Chain of Hypoxia-inducible factor 1-alpha inhibitor (Homo sapiens) (Q9NWT6 whole entry): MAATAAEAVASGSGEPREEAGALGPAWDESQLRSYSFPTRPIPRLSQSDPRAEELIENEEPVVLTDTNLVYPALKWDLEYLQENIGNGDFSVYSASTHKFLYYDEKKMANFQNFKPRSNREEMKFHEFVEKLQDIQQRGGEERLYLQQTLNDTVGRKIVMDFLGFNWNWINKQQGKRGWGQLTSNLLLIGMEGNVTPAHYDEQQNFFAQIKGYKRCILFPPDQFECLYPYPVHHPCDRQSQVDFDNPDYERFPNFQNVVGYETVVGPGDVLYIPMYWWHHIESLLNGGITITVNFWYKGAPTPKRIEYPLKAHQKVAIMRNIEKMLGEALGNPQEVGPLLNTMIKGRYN

Row | SMILES | inhibition (active/inactive call) (Egl nine homolog 1 [1]) | inhibition [2] | Activity (Egl nine homolog 1 [3]) | inhibition (Egl nine homolog 1 [4]) | inhibition (Egl nine homolog 1 [5]) | Activity (Egl nine homolog 1 [6]) | inhibition (Egl nine homolog 1 [7]) | IC50 (Egl nine homolog 1 [8])
1 | O=c1cc(-c2ccccc2)oc2cc(O)c(O)c(O)c12 | – | Active | Active | Active | – | – | – | –
2 | O=C(O)[C@@H]1C=CCN1 | Active | Active | – | – | Active | Active | inactive | 8.5 µM
3 | O=C(O)[C@@H]1CC(=S)CN1 | Active | Active | – | – | Active | – | inactive | 69.7 µM

More lines, now with the values ahead:

Row | inhibition (active/inactive call) (Egl nine homolog 1 [1]) | inhibition [2] | Activity (Egl nine homolog 1 [3]) | inhibition (Egl nine homolog 1 [4]) | inhibition (Egl nine homolog 1 [5]) | Activity (Egl nine homolog 1 [6]) | inhibition (Egl nine homolog 1 [7]) | IC50 (Egl nine homolog 1 [8]) | SMILES
4 | inactive | – | – | – | – | – | – | – | O=C(O)[C@@H]1C[C@@H](O)CN1
5 | inactive | – | – | – | – | – | – | – | O=C(O)[C@@H]1C[C@@H](F)CN1

— ChEMBL document CHEMBL1800070, “Inhibition of a prolyl hydroxylase domain (PHD) by substrate analog peptides” (Bioorg Med Chem Lett, 2011)
